Laboratory results taken from patent publication US20150065440A1 (Progen Pharmaceuticals Limited, priority 2007, published 2015).
Where two headings read alike, the source gives them in different places.

How the values were obtained:
[1] = target: FGF-1 (Homo sapiens, UniProt P05230); assay: Growth factor binding assay (SPR solution affinity), FGF-1; settings: SPR, HBS-EP buffer, 25° C.; read-out: Kd FGF-1
[2] = target: T1, recombinant human heparanase (Homo sapiens, UniProt Q9Y251); assay: Heparanase inhibition assay (fondaparinux cleavage, WST-1); settings: read-out: Ki Heparanase; IC50 converted into Ki; fondaparinux 100 μM, pH 5.0
T1 sequence (Q9Y251 158-543 limits assumed): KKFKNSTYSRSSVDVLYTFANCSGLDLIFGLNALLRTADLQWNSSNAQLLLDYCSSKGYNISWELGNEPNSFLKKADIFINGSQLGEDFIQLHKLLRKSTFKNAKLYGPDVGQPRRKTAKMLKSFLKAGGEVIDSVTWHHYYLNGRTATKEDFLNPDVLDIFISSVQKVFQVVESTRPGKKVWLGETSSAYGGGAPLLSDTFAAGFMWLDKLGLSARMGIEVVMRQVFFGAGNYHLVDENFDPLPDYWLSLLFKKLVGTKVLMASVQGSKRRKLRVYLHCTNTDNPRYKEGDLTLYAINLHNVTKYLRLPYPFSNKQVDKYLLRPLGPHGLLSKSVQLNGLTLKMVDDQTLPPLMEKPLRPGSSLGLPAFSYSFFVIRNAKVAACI
T1 sequence (Q9Y251 36-109 limits assumed): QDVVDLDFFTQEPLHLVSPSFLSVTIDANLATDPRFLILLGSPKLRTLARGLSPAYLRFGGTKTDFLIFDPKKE

[3] = test system: pooled normal human plasma; assay: Anticoagulant activity, APTT; settings: 0.1 mg/mL in normal pooled human plasma
Protocol: APTT measurements were performed on a STAGO STA-Compact Coagulation Analyser using standard protocols according to the manufacturer's instructions. Unfractionated heparin (UFH) was used as a control.

[4] = target: FGF-2 (Homo sapiens, UniProt P09038); assay: Growth factor binding assay (SPR solution affinity), FGF-2
Chain of FGF-2 (P09038 143-288, species assumed): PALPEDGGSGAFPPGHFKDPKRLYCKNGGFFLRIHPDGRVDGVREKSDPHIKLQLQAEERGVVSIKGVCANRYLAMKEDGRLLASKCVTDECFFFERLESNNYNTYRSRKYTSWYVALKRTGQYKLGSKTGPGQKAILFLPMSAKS
In short: (§1)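 Kd measured by SPR solution affinity: fixed growth factor with varying ligand competing for heparin-coated sensorchip, 25 °C. Buffer HBS-EP pH 7.4 (150 mM NaCl) for FGF-1 and VEGF; FGF-2 with 0.3 M NaCl. Duplicate values averaged.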

[5] = test system: HSV-2; assay: Viral plaque number-reduction assay, HSV-2; settings: for Selective index CC50/IC50 HSV-2: GMK AH1 cells; for HSV-2 IC50: viral plaques in GMK AH1 cells (Table 9)
Protocol: (§2) African green monkey kidney (GMK AH1) cells^46 were cultured in Eagle's minimum essential medium (EMEM) supplemented with 2% calf serum, 0.05% Primaton RL substance (Kraft Inc., Norwich, USA) and antibiotics. Human epidermoid carcinoma (HEp-2) cells were cultured in Dulbecco's modified EMEM (DMEM) supplemented with 10% fetal calf serum and antibiotics. […] The RSV strain A-2^50 was used. The RSV stock was prepared as described by Hallak et al.^51 and stored at −70° C. in the presence of 40% sucrose^52.
(§3) The viral infectivity (the plaque number-reduction) assay and the plaque size-reduction assay were carried out as described previously^17. […] Subsequently, the cells were washed with 2 mL of EMEM and overlaid with 1% methylcellulose solution in EMEM. The plaques were visualized by staining with crystal violet solution after 2 (HSV-2) or 3 (HSV-1) days of incubation at 37° C. […] When the compounds were screened for anti-HSV or anti-RSV activity, mixtures of 200 PFU of the virus and the test compound (100 μg/mL) in serum-free EMEM were incubated for 10 min at room temperature before addition to cells and during the entire period of viral infection of cells and the development of viral plaques. In the plaque size-reduction assay, the compounds were added to cells (in methylcellulose overlay medium) after 2 h period of virus infection of cells in the absence of the inhibitor. After 2-3 days of incubation at 37° C., the viral plaques were visualized by staining the cells with 1% solution of crystal violet. For each compound tested, the images of twenty neighboring plaques were captured using a Leica DC300 digital camera attached to a Leitz-Wetzlar Diavert microscope. The area of each plaque was determined using IM500 image software (Leica). Similar protocols were used for RSV, except that the assays were performed in HEp-2 cells and DMEM supplemented with 2% heat-inactivated fetal calf serum was used instead of EMEM.

[6] = test system: RSV; assay: Viral plaque number-reduction assay, RSV; settings: for Selective index CC50/IC50 RSV: HEp-2 cells; for RSV IC50: viral plaques (Table 9)
Protocol: as §2, §3

[7] = test system: normal pooled human plasma; assay: Anticoagulant activity, Heptest; settings: 0.1 mg/mL in normal pooled human plasma
[8] = target: T2, VEGF (Homo sapiens, UniProt P15692); assay: Growth factor binding assay (SPR solution affinity), VEGF; settings: HBS-EP buffer, 25° C.
T2 sequence (P15692 207-395): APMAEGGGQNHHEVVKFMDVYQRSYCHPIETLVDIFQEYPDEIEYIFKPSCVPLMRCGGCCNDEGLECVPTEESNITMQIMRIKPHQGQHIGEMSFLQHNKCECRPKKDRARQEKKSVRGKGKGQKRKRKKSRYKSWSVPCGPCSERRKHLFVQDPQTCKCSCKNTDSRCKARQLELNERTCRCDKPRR
In short: as §1

[9] = SPR, HBS-EP buffer containing 0.3 M NaCl, 25° C.; read-out: Kd FGF-2

Chain of FGF-1 (P05230 whole entry, species assumed): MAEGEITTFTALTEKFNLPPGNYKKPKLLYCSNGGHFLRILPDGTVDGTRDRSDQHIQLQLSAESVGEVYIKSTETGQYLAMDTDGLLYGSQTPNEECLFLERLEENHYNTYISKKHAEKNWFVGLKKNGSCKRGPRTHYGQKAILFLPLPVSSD

| Kd [4, 9] [nM] | HSV-2 IC50 [5] [µg/mL] | RSV IC50 [6] [µg/mL] | Structure (SMILES) | Kd [1] [nM] | Ki [2] [nM] | APTT [3] [s] | Selective index CC50/IC50 HSV-2 [5] | Selective index CC50/IC50 RSV [6] | Heptest [7] [s] | Kd [8] [nM] | Kd ([4]; read-out: Kd FGF-2; SPR, HBS-EP buffer containing 0.3 M NaCl, 25° C.) [nM] | IC50 ([5]; Human alphaherpesvirus 2, read-out: HSV-2 IC50) [µg/mL] | IC50 ([6]; human respiratory syncytial virus, read-out: RSV IC50) [µg/mL] |
| --- | --- | --- | --- | --- | --- | --- | --- | --- | --- | --- | --- | --- | --- |
|  |  |  | CC(C)CCCC(C)C1CCC2C3CCC4CC(OC5OC(COS(=O)(=O)O)C(OS(=O)(=O)O)C(OS(=O)(=O)O)C5OC5OC(COS(=O)(=O)O)C(OS(=O)(=O)O)C(OC6OC(COS(=O)(=O)O)C(OS(=O)(=O)O)C(OC7OC(COS(=O)(=O)O)C(OS(=O)(=O)O)C(OS(=O)(=O)O)C7OS(=O)(=O)O)C6OS(=O)(=O)O)C5OS(=O)(=O)O)CCC4(C)C3CCC12C [Compound 20, 3β-Cholestanyl 2,3,4,6-tetra-O-sodium sulfonato-α-D-mannopyranosyl-(1→3)-2,4,6-tri-O-sodium sulfonato-α-D-mannopyranosyl-(1→3)-2,4,6-tri-O-sodium sulfonato-α-D-mannopyranosyl-(1→2)-3,4,6-tri-O-sodium sulfonato-α-D-mannopyranoside] | 0.6 ± 0.5 | 5.8 ± 1.5 | 94.0 | 100 | 66 | 28.0 | 22 ± 6 | 160 ± 40 |  |  |
| 490 ± 40 | 0.3 | 0.45 | CC(C)CCC[C@@H](C)[C@H]1CC[C@H]2[C@@H]3CCC4CC(O[C@H]5O[C@H](COS(=O)(=O)[O-])[C@@H](OS(=O)(=O)[O-])[C@H](O[C@H]6O[C@H](COS(=O)(=O)[O-])[C@@H](OS(=O)(=O)[O-])[C@H](O[C@H]7O[C@H](COS(=O)(=O)[O-])[C@@H](OS(=O)(=O)[O-])[C@H](OS(=O)(=O)[O-])[C@@H]7OS(=O)(=O)[O-])[C@@H]6OS(=O)(=O)[O-])[C@@H]5OS(=O)(=O)[O-])CC[C@]4(C)[C@H]3CC[C@]12C.[Na+].[Na+].[Na+].[Na+].[Na+].[Na+].[Na+].[Na+].[Na+].[Na+] (stereo partly drawn) [Compound 56, 3′-Cholestanyl 2,3,4,6-tetra-O-sodium sulfonato-α-D-mannopyranosyl-(1→3)-2,4,6-tri-O-sodium sulfonato-α-D-mannopyranosyl-(1→3)-3,4,6-tri-O-sodium sulfonato-α-D-mannopyranoside] | 16 ± 7 | 10.5 ± 1.7 | 58.5 |  |  | 24.2 | 90 ± 30 |  |  |  |
| 474 ± 1.4 | 0.24 | 0.39 | CC(C)CCC[C@@H](C)[C@H]1CC[C@H]2[C@@H]3CCC4C[C@@H](OCc5cn(CCCO[C@H]6O[C@H](COS(=O)(=O)[O-])[C@@H](OS(=O)(=O)[O-])[C@H](O[C@H]7O[C@H](COS(=O)(=O)[O-])[C@@H](OS(=O)(=O)[O-])[C@H](O[C@H]8O[C@H](COS(=O)(=O)[O-])[C@@H](OS(=O)(=O)[O-])[C@H](OS(=O)(=O)[O-])[C@@H]8OS(=O)(=O)[O-])[C@@H]7OS(=O)(=O)[O-])[C@@H]6OS(=O)(=O)[O-])nn5)CC[C@]4(C)[C@H]3CC[C@]12C.[Na+].[Na+].[Na+].[Na+].[Na+].[Na+].[Na+].[Na+].[Na+].[Na+] (stereo partly drawn) [Compound 60, 3-{4-(Cholestan-3β-yl-oxymethyl)-[1,2,3]triazol-1-yl}propyl 2,3,4,6-tetra-O-sodium sulfonato-α-D-mannopyranosyl-(1→3)-2,4,6-tri-O-sodium sulfonato-α-D-mannopyranosyl-(1→3)-3,4,6-tri-O-sodium sulfonato-α-D-mannopyranoside] | 14.3 ± 3 | 8.4 ± 2.6 | 71.4 |  |  | 26.4 | 260 ± 130 |  |  |  |
| 390 ± 90 | 0.15 | 0.23 | CC(C)CCC[C@@H](C)[C@H]1CC[C@H]2[C@@H]3CCC4CC(OCc5cn([C@@H]6O[C@H](COS(=O)(=O)[O-])[C@@H](O[C@H]7O[C@H](COS(=O)(=O)[O-])[C@@H](O[C@H]8O[C@H](COS(=O)(=O)[O-])[C@@H](OS(=O)(=O)[O-])[C@H](OS(=O)(=O)[O-])[C@H]8OS(=O)(=O)[O-])[C@H](OS(=O)(=O)[O-])[C@H]7OS(=O)(=O)[O-])[C@H](OS(=O)(=O)[O-])[C@H]6OS(=O)(=O)[O-])nn5)CC[C@]4(C)[C@H]3CC[C@]12C.[Na+].[Na+].[Na+].[Na+].[Na+].[Na+].[Na+].[Na+].[Na+].[Na+] (stereo partly drawn) [Compound 70, 4-(Cholestan-3-yl-oxymethyl)[1,2,3]triazol-1-yl 2,3,4,6-tetra-O-sodium sulfonato-α-D-glucopyranosyl-(1→4)-2,3,6-tri-O-sodium sulfonato-α-D-glucopyranosyl-(1→4)-1-deoxy-2,3,6-tri-O-sodium sulfonato-β-D-glucopyranoside] | 9.7 ± 0.8 | 3.7 ± 0.8 | 104.0 |  |  | 45.5 | 95 ± 8 |  |  |  |

| Structure (SMILES) | Kd [4, 9] [nM] | HSV-2 IC50 [5] [µg/mL] | RSV IC50 [6] [µg/mL] | Kd [1] [nM] | Ki [2] [nM] | APTT [3] [s] | Selective index CC50/IC50 HSV-2 [5] | Selective index CC50/IC50 RSV [6] | Heptest [7] [s] | Kd [8] [nM] | Kd ([4]; read-out: Kd FGF-2; SPR, HBS-EP buffer containing 0.3 M NaCl, 25° C.) [nM] | IC50 ([5]; Human alphaherpesvirus 2, read-out: HSV-2 IC50) [µg/mL] | IC50 ([6]; human respiratory syncytial virus, read-out: RSV IC50) [µg/mL] |
| --- | --- | --- | --- | --- | --- | --- | --- | --- | --- | --- | --- | --- | --- |
| CCCCCCCCCCCCOC1OC(COS(=O)(=O)O)C(OS(=O)(=O)O)C(OS(=O)(=O)O)C1OC1OC(COS(=O)(=O)O)C(OS(=O)(=O)O)C(OC2OC(COS(=O)(=O)O)C(OS(=O)(=O)O)C(OC3OC(COS(=O)(=O)O)C(OS(=O)(=O)O)C(OC4OC(COS(=O)(=O)O)C(OS(=O)(=O)O)C(OS(=O)(=O)O)C4OS(=O)(=O)O)C3OS(=O)(=O)O)C2OS(=O)(=O)O)C1OS(=O)(=O)O [Compound 4, Dodecyl 2,3,4,6-tetra-O-sodium sulfonato-α-D-mannopyranosyl-(1→3)-2,4,6-tri-O-sodium sulfonato-α-D-mannopyranosyl-(1→3)-2,4,6-tri-O-sodium sulfonato-α-D-mannopyranosyl-(1→3)-2,4,6-tri-O-sodium sulfonato-α-D-mannopyranosyl-(1→2)-3,4,6-tri-O-sodium sulfonato-α-D-mannopyranoside] | 480 ± 70 |  |  | 6 ± 3 | 4.2 ± 0.5 | 125.9 | > 444 | > 87 | 64.2 | 12 ± 3 |  |  |  |
| CC(C)CCC[C@@H](C)[C@H]1CC[C@H]2[C@@H]3CC[C@H]4C[C@@H](O[C@H]5O[C@H](COS(=O)(=O)O)[C@@H](OS(=O)(=O)O)[C@H](OS(=O)(=O)O)[C@@H]5O[C@H]5O[C@H](COS(=O)(=O)O)[C@@H](OS(=O)(=O)O)[C@H](OS(=O)(=O)O)[C@@H]5OS(=O)(=O)O)CC[C@]4(C)[C@H]3CC[C@]12C [Compound 33, 3β-Cholestanyl 2,3,4,6-tetra-O-sodium sulfonato-α-D-mannopyranosyl-(1→2)-3,4,6-tri-O-sodium sulfonato-α-D-mannopyranoside] | 1570 ± 150 |  |  | 270 ± 30 | 22.3 ± 1.6 | 40.6 |  |  | 25.5 | 1300 ± 300 |  | 0.7 | 1.8 |
